Laboratory results from ChEMBL document CHEMBL1128371, “Synthesis and structure-activity relationships of side-chain-substituted analogs of the allylamine antimycotic terbinafine lacking the central amino function” (1995).
Values after ≈ are worked out from the molar mass of the structure shown.

What was measured:
[1] = system: Microsporum canis; experiment: In vitro antifungal activity against Microsporum canis; type: functional
[2] = system: Sporothrix schenckii; experiment: In vitro antifungal activity against Sporothrix schenck ii; type: functional
[3] = system: Candida albicans; experiment: In vitro antifungal activity against Candida albicans 124; type: functional
[4] = system: Aspergillus fumigatus; experiment: In vitro antifungal activity against Aspergillus fumigatus; type: functional
[5] = system: Trichophyton benhamiae; experiment: In vitro antifungal activity against Trichophyton mentagrophytes; type: functional, Arthroderma benhamiae
[6] = system: Candida parapsilosis; experiment: In vitro antifungal activity against Candida parapsilosis 39; type: functional; conditions: Lodderomyces parapsilosis

SMILES	MIC [1]	MIC [2]	MIC [3]	MIC [4]	MIC [5]	MIC [6]
CC(C/C=C/C#CC(C)(C)N(C)c1ccccc1)Cc1cccc2ccccc12 (stereo not given)	> 100 µg/mL	> 100 µg/mL	> 100 µg/mL	> 100 µg/mL	> 100 µg/mL	> 100 µg/mL
CN(C/C=C/C#CC(C)(C)C)Cc1cccc2ccccc12 [TERBINAFINE]	0.006 µg/mL (≈ 0.0206 µM)	0.4 µg/mL (≈ 1.37 µM)	25 µg/mL (≈ 85.8 µM)	0.8 µg/mL (≈ 2.75 µM)	0.003 µg/mL (≈ 0.0103 µM)	0.8 µg/mL (≈ 2.75 µM)
CC(C/C=C/C#CC(C)(C)CO)Cc1cccc2ccccc12 (stereo not given)	100 µg/mL (≈ 326 µM)	> 100 µg/mL	> 100 µg/mL	> 100 µg/mL	3.1 µg/mL (≈ 10.1 µM)	> 100 µg/mL
CC(=O)NC(C)(C)C#C/C=C/CC(C)Cc1cccc2ccccc12 (stereo not given)	> 50 µg/mL	> 50 µg/mL	> 50 µg/mL	> 50 µg/mL	> 50 µg/mL	> 50 µg/mL
COC(=O)C(C)(C)C#C/C=C/CC(C)Cc1cccc2ccccc12 (stereo not given)	0.8 µg/mL (≈ 2.39 µM)	> 100 µg/mL	> 100 µg/mL	> 100 µg/mL	0.1 µg/mL (≈ 0.299 µM)	> 100 µg/mL
CC(C/C=C/C#CC(C)(C)O)Cc1cccc2ccccc12 (stereo not given)	> 100 µg/mL	> 100 µg/mL	> 100 µg/mL	> 100 µg/mL	3.1 µg/mL (≈ 10.6 µM)	> 100 µg/mL
CC(C/C=C/C#CC(C)(C)C)Cc1cccc2ccccc12 (stereo not given)	3.1 µg/mL (≈ 10.7 µM)	> 100 µg/mL	> 100 µg/mL	> 100 µg/mL	0.4 µg/mL (≈ 1.38 µM)	> 100 µg/mL
CC(C/C=C/C#CC(C)(C)[N+](C)(C)C)Cc1cccc2ccccc12 (stereo not given)	> 100 µg/mL	12.5 µg/mL	25 µg/mL	> 100 µg/mL	> 100 µg/mL	100 µg/mL
CN(C/C=C/c1ccccc1)Cc1cccc2ccccc12 [NAFTIFINE]	0.1 µg/mL (≈ 0.348 µM)	1.6 µg/mL (≈ 5.57 µM)		12.5 µg/mL (≈ 43.5 µM)	0.05 µg/mL (≈ 0.174 µM)	1.6 µg/mL (≈ 5.57 µM)
CC(C/C=C/C#CC(C)(C)N(C)C)Cc1cccc2ccccc12 (stereo not given)	0.2 µg/mL (≈ 0.626 µM)	3.1 µg/mL (≈ 9.7 µM)	50 µg/mL (≈ 156 µM)	12.5 µg/mL (≈ 39.1 µM)	0.1 µg/mL (≈ 0.313 µM)	6.25 µg/mL (≈ 19.6 µM)
CC(C/C=C/C#CC(C)(C)C(=O)O)Cc1cccc2ccccc12 (stereo not given)	> 100 µg/mL	> 100 µg/mL	> 100 µg/mL	> 100 µg/mL	> 100 µg/mL	> 100 µg/mL
CC(C/C=C/C#CC(C)(C)C(N)=O)Cc1cccc2ccccc12 (stereo not given)	> 100 µg/mL	> 100 µg/mL	> 100 µg/mL	> 100 µg/mL	> 100 µg/mL	> 100 µg/mL
CC(C/C=C/C#CC(C)(C)N)Cc1cccc2ccccc12 (stereo not given)	3.1 µg/mL (≈ 10.6 µM)	12.5 µg/mL (≈ 42.9 µM)	> 100 µg/mL	25 µg/mL (≈ 85.8 µM)	1.6 µg/mL (≈ 5.49 µM)	> 100 µg/mL
CNC(=O)C(C)(C)C#C/C=C/CC(C)Cc1cccc2ccccc12 (stereo not given)	1.6 µg/mL (≈ 4.8 µM)	> 100 µg/mL	> 100 µg/mL	> 100 µg/mL	0.4 µg/mL (≈ 1.2 µM)	> 100 µg/mL
CC(C/C=C/C#CC(C)(C)CN)Cc1cccc2ccccc12 (stereo not given)	25 µg/mL (≈ 81.8 µM)	25 µg/mL (≈ 81.8 µM)	> 50 µg/mL	50 µg/mL (≈ 164 µM)	6.25 µg/mL (≈ 20.5 µM)	> 50 µg/mL
CC(C/C=C/C#CC(C)(C)C#N)Cc1cccc2ccccc12 (stereo not given)	12.5 µg/mL (≈ 41.5 µM)	> 100 µg/mL	> 100 µg/mL	> 100 µg/mL	0.4 µg/mL (≈ 1.33 µM)	> 100 µg/mL
